Results as given in patent US20220143103A1, “COMPOSITION FOR PREVENTING OR TREATING NEUROINFLAMMATORY DISORDERS, COMPRISING BEE VENOM EXTRACT AS ACTIVE INGREDIENT” (priority 2019, published 2022).

Tests used:
Type in all cases: cell-based
[1] = test system: TNF-α, IL-1β, IL-6, IL-4, TGF-β in BV-2 cells; experiment: qRT-PCR of cytokines in LPS-treated BV-2 cells; conditions: BV-2, LPS 1 μg/mL
Description: Pro-inflammatory and anti-inflammatory cytokine levels were measured by quantitative reverse transcription polymerase chain reaction (qRT-PCR). Total RNA was extracted from hippocampal tissue using RiboEX (Geneall biotechnology, Seoul, Korea), and cDNA was synthesized using a High-Capacity cDNA Reverse Transcription kit (Thermo Scientific, Waltham, Mass., USA).
qRT-PCR was performed on a 7500 real-time PCR system (Applied Biosystems, Foster City, Calif., USA) for custom designed primers, and β-actin was used as a house-keeping control using a HiPi Real-Time PCR SYBR green master mix (ELPIS biotech, Daejeon, Korea).
A cycling condition consisting of an initial denaturation step of 3 minutes at 94° C., a denaturation step of 30 seconds at 94° C., an annealing step of 30 seconds at 60° C., and an extension step of 1 minute at 72° C., was continued until 40 cycles. Values obtained for target gene expression were normalized to β-actin and quantified for expression in control samples.
Each sample was performed with the primers in Table 2 below.
(§1) Microglia BV-2 was cultured and treated simultaneously with LPS (1 μg/mL) or Aβ1-42 (2.5 μM) and various concentrations of bvPLA2 (0.01, 0.1, 1 μg/mL) dissolved in PBS. Cells were harvested after 24 hours to measure cell viability, Nitric Oxide concentration, and a level of pro-inflammatory cytokines.

[2] = test system: NF-κB (p65, p50, p-IκBα) in BV-2 cells; experiment: Western blot of NF-κB subunits and p-IκBα in LPS-treated BV-2 cells; conditions: BV-2, LPS 1 μg/mL, bvPLA2 100 ng/mL, NF-κB inhibitor; FIG. 7B
Description: (§2) Blots were incubated with corresponding conjugated secondary antibodies such as anti-mouse, anti-rabbit and anti-goat obtained from Santa Cruz Biotechnology Inc. (Santa Cruz, Calif., USA). Immunoreactive proteins were detected with an enhanced chemiluminescence Western blotting detection system.
as §1
To determine whether or not bvPLA2 affects inhibition of NF-κB translocation, the level of the NF-κB subunit in the nucleus of BV-2 cells was measured by Western blot.

[3] = test system: iNOS, COX-2, IBA-1 in BV-2 cells; experiment: Western blot of iNOS, COX-2, IBA-1 in LPS-treated BV-2 cells; conditions: BV-2, LPS 1 μg/mL
Description: To detect target proteins, specific antibodies to iNOS, IBA-1, GFAP, APP and BACE1 (1:1000; Abcam, Inc., Cambridge, UK), COX-2 (1:1000; Novus Biologicals, Inc., CO, USA), c-Jun N-terminal kinase (JNK), extracellular signal-regulated kinase (ERK) 1/2, p-p38 and p38 ([…]; Cell signaling Technology, Inc., MA, USA), p-STAT3, STAT3, p-ERK1/2, p-JNK, and β-actin (1:200; Santa Cruz Biotechnology Inc., Santa Cruz, Calif., USA) were used.
as §2, §1

Aβ1-42 in BV-2 cells = experiment: Aβ1-42 ELISA in LPS-treated BV-2 cells; conditions: BV-2, LPS 1 μg/mL, Stattic 1 μM, 24 h
Description: Lysates of brain tissue were obtained through a protein extraction buffer containing protease inhibitors. Aβ1-42 and Aβ1-40 levels were measured using the specific mouse β-amyloid peptide 1-42 enzyme-linked immunosorbent assay (ELISA) kit (CSB-E10787m; CUSABIO, Houston, USA) and mouse β-amyloid peptide 1-40 ELISA kit (CSB-E08300m; CUSABIO, Houston, USA), respectively.
To investigate the effect of bvPLA2 on amyloidogenesis in vitro, BV-2 cells were treated with LPS and various concentrations of bvPLA2 (0.01, 0.1, 1 μg/mL) for 24 hours. Aβ1-42 levels in BV-2 cells were determined by ELISA.
The inhibitory effects of a STAT3 inhibitor (Stattic) and the bee venom extracts on amyloid production and neuroinflammation were tested in BV-2 cells. To determine the combination effect of bvPLA2 and Stattic on amyloidogenesis and neuroinflammation in vitro, BV-2 microglia were treated with LPS (1 μg/m L), Stattic (1 μM), or bvPLA2 (1 μg/mL) for 24 h.

β-secretase = β-secretase activity assay in LPS-treated BV-2 cells; conditions: BV-2, LPS 1 μg/mL, Stattic 1 μM, bvPLA2 1 μg/mL, 24 h; FIG. 21B
Description: β-secretase activity in the mouse brain was determined using a commercially available β-secretase activity assay kit (Abcam, Inc., Cambridge, Mass., USA). A solubilized membrane was extracted from brain tissues using a β-secretase extraction buffer, incubated on ice for 1 hour, and centrifuged at 5000×g for 10 minutes at 4° C. to collect supernatant.
A total of 50 μL of sample (100 μg of total protein) or blank (50 μL of β-secretase extraction buffer) was added to each well (96-well plate), then 50 μL of 2× reaction buffer and 2 μL of β-secretase substrate were incubated for 1 hour in a dark room at 37° C. Fluorescence was read at excitation and emission wavelengths of 335 and 495 nm, respectively, using a fluorescence spectrometer (Gemini EM; Molecular Devices, CA, USA).
as §1

Row | Compound | expression levels of TNF-α, IL-1β, and IL-6 (qRT-PCR) ([1]; bvPLA2 100 ng/mL, NF-κB inhibitor, FIG. 7C) | levels of p-IκBα, p65, and p50 [2] | levels of iNOS and COX-2 (Western blot) ([3]; bvPLA2 100 ng/mL, NF-κB inhibitor, FIG. 7A) | expression levels of TNF-α, IL-1β, and IL-6 (qRT-PCR) ([1]; Stattic 1 μM, bvPLA2 1 μg/mL, 24 h, FIG. 21E) | Aβ1-42 level (ELISA) (Aβ1-42 in BV-2 cells) [pg/mg] | β-secretase activity (β-secretase) | intracellular levels of iNOS and COX-2 (Western blot) ([3]; Stattic 1 μM, bvPLA2 1 μg/mL, 24 h, FIG. 21D)
1 | Cc1ccc(S(=O)(=O)/C=C/C#N)cc1 [Bay 11-7802] | decreased | alleviated | decreased | – | – | – | –
2 | O=[N+]([O-])c1ccc2c(c1)S(=O)(=O)C=C2 [Stattic] | – | – | – | decreased | 264.2 ± 4.384 | decreased | decreased
